Read-outs that look alike come from different tables or passages of the source.

Series [1] is described as follows: log P by HPLC on reversed-phase column (C 18), EEC Directive 79/831 Annex V.A8. It is filed as physicochemical. The settings on record: 55° C.; for LOGP_HCOOH: log P (HCOOH); for chromatographic logP: reversed-phase HPLC column (C 18). As to the method:
Temperature: 55° C. […] Called log P (HCOOH) in the table. […] Called log P (neutral) in the table.

In series [2] the test system is Ctenocephalides felis. The experiment in a line: Ctenocephalides felis oral test. Format: in vivo. The settings on record: application rate 100 ppm in citrated cattle blood, after 2 days, adult cat fleas; for pest or weed control at 100 ppm: Ctenocephalides felis, po, 48 h, read-out: efficacy (kill in %). In short, it runs like this:
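About 20 unfed adult cat fleas fed through a parafilm membrane on citrated cattle blood dosed with compound from a DMSO formulation. Percent kill was scored after 2 days.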

Series [3] concerns Phaedon cochleariae. The experiment in a line: Phaedon cochleariae spray test. Format: in vivo. The settings on record: after 7 days, Chinese cabbage leaf discs; for pest or weed control at 100 g/ha / pest or weed control at 500 g/ha: Phaedon cochleariae, foliar, 168 h, read-out: efficacy (beetle larvae killed). The method, boiled down: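 Chinese cabbage leaf discs sprayed with compound in acetone/DMF and emulsifier-containing water, then infested with mustard beetle larvae once dry. Efficacy in % scored after 7 days (100% = all larvae killed, 0% = none).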

Series [4] has as its system Lucilia cuprina. The experiment in a line: Lucilia cuprina test. It is filed as in vivo. The conditions noted are these: application rate 100 ppm, after 2 days, L1 larvae. As to the method:
Lucilia cuprina Test Solvent: dimethyl sulphoxide To produce a suitable active ingredient formulation, 10 mg of active ingredient are mixed with 0.5 ml of dimethyl sulphoxide, and the concentrate is diluted with water to the desired concentration. About 20 L1 larvae of the Australian sheep blowfly (Lucilia cuprina) are transferred into a test vessel containing minced horsemeat and the active ingredient formulation of the desired concentration. After 2 days, the kill in % is determined. 100% means that all the larvae have been killed; 0% means that no larvae have been killed.

In series [5] the test system is Spodoptera frugiperda. The experiment in a line: Spodoptera frugiperda spray test. Format: in vivo. The conditions noted are these: after 7 days, maize leaf discs; for pest or weed control at 100 g/ha / pest or weed control at 500 g/ha: Spodoptera frugiperda, foliar, 168 h, read-out: efficacy (caterpillars killed). The method, boiled down: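 Maize leaf discs were sprayed with compound formulated in acetone/DMF and emulsifier-containing water, dried, then infested with Spodoptera frugiperda caterpillars. Percent kill was scored after 7 days, from 100% (all dead) to 0% (none dead).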

Where [6] appears, read: acidic range at pH 2.7, 0.1% aqueous formic acid and acetonitrile, HPLC on reversed-phase column (C 18).
Where [7] appears, read: log P, neutral range, HPLC on reversed-phase column (C 18).
Where [8] appears, read: acidic range pH 2.7, 0.1% aqueous formic acid and acetonitrile, reversed-phase column (C 18).
[9] abbreviates: pH 2.7, LC-MS acidic range, pH 2.7, 0.1% formic acid/acetonitrile, read-out: log P (acidic) / log P (HCOOH).
Setting [10] is: pH 7.8, LC-MS neutral range, pH 7.8, ammonium hydrogencarbonate/acetonitrile, read-out: log P (neutral).

In series [1] (setting [6]), `N#Cc1ccc(CNC(=O)c2cc(-c3ccc(OC(F)(F)F)cc3)cc(NC(=O)C3CC(F)(F)C3)n2)cc1` [Example I-213] showed an LOGP_HCOOH of 4.14. The molecule further yielded an LOGP_NEUTRAL in series [1] (setting [7]) of 4.02. Also, the “efficacy (kill in %)” value in series [2] and in series [4] was 100% each time. Moreover, the “efficacy (beetle larvae killed)” value in series [3] (application rate 100 g/ha) and in series [3] (application rate 500 g/ha) was 100% in each case. The “efficacy (caterpillars killed)” value in series [5] (application rate 100 g/ha) came to 100%.
Regarding `O=C(NCc1ccc(-c2ncon2)cc1)c1cc(-c2ccc(SC(F)(F)F)cc2)cc(NC(=O)C2CC2)n1` [Example I-093], the LOGP_HCOOH in series [1] (setting [8]) was determined as 4.28. Moreover, in series [1] (setting [7]), the LOGP_NEUTRAL is reported as 4.15. For the same molecule, the figures for the “efficacy (kill in %)” value in series [2] and in series [4] were 95% and 100%, respectively. In addition, the “efficacy (beetle larvae killed)” value in series [3] (application rate 100 g/ha) and in series [3] (application rate 500 g/ha) was 100% each time. The “efficacy (caterpillars killed)” value in series [5] (application rate 500 g/ha) was determined as 100%.
Turning to `N#Cc1ccc(CNC(=O)c2cc(-c3ccc(C(F)(F)C(F)(F)F)c(F)c3)cc(NC(=O)C3CC3)n2)cc1` [Example I-149, N-(4-Cyanobenzyl)-6-[(cyclopropylcarbonyl)amino]-4-[3-fluoro-4-(pentafluoroethyl)phenyl]pyridine-2-carboxamide], the LOGP_HCOOH in series [1] (setting [6]) stood at 4.25. Moreover, the LOGP_NEUTRAL in series [1] (setting [7]) turned out to be 4.14. The chromatographic logP in series [1] (setting [9]) was 4.25; in series [1] (setting [10]), 4.14. In addition, the pest or weed control at 100 ppm in series [2] was 100%. Moreover, the pest or weed control at 100 g/ha in series [3] (application rate 100 g/ha) and in series [5] (application rate 100 g/ha) was 100% in each case. The pest or weed control at 500 g/ha in series [3] (application rate 500 g/ha) and in series [5] (application rate 500 g/ha) was 100% each time. Also, the “efficacy (kill in %)” value in series [4] came out at 100%.
As to `N#Cc1ccc(CNC(=O)c2cc(-c3ccc(OC(F)(F)F)cc3F)cc(NC(=O)C3CC3)n2)cc1` [Example I-124], in series [1] (setting [6]), the LOGP_HCOOH is listed as 3.87. For the same molecule, the LOGP_NEUTRAL in series [1] (setting [7]) was found to be 3.78. Moreover, the “efficacy (kill in %)” value in series [2] and in series [4] was 100% in each case. Moreover, the “efficacy (beetle larvae killed)” value in series [3] (application rate 100 g/ha) and in series [3] (application rate 500 g/ha) was 100% throughout. Also, the “efficacy (caterpillars killed)” value in series [5] (application rate 100 g/ha) and in series [5] (application rate 500 g/ha) was 100% throughout.
As for `N#Cc1ccc(CNC(=O)c2cc(-c3ccc(Br)cc3)cc(NC(=O)C3CC3)n2)cc1` [Example I-053], the LOGP_HCOOH in series [1] (setting [8]) is 3.73. The LOGP_NEUTRAL in series [1] (setting [7]) is reported as 3.61. Also, the “efficacy (kill in %)” value is recorded as 95% in series [2] and 100% in series [4]. The “efficacy (beetle larvae killed)” value in series [3] (application rate 500 g/ha) is reported as 100%. In addition, the “efficacy (caterpillars killed)” value in series [5] (application rate 500 g/ha) was determined as 100%.
`N#Cc1ccc(CNC(=O)c2cc(-c3ccc(OC(F)(F)F)cc3)cc(NC(=O)C3CC3)n2)cc1F` [Example I-080]: in series [1] (setting [8]), the LOGP_HCOOH was determined as 4.01. This molecule also had an LOGP_NEUTRAL in series [1] (setting [7]) of 3.87. The “efficacy (kill in %)” value in series [2] and in series [4] was 100% in each case. Moreover, the “efficacy (beetle larvae killed)” value in series [3] (application rate 100 g/ha) and in series [3] (application rate 500 g/ha) was 100% each time. The “efficacy (caterpillars killed)” value was determined as 83% in series [5] (application rate 100 g/ha) and 100% in series [5] (application rate 500 g/ha).
The molecule `N#Cc1c(F)cc(CNC(=O)c2cc(-c3ccc(C(F)(F)C(F)(F)F)c(F)c3)cc(NC(=O)C3CC3)n2)cc1F` [Example I-250] gave an LOGP_HCOOH in series [1] (setting [8]) of 4.56. For the same molecule, the LOGP_NEUTRAL in series [1] (log P (neutral), HPLC reversed-phase column (C 18)) is 4.50. In addition, the “efficacy (kill in %)” value amounted to 100% in series [2] and 95% in series [4]. Moreover, the “efficacy (beetle larvae killed)” value in series [3] (application rate 100 g/ha) and in series [3] (application rate 500 g/ha) was 100% throughout. The “efficacy (caterpillars killed)” value in series [5] (application rate 100 g/ha) and in series [5] (application rate 500 g/ha) was 100% throughout.
Molecule `O=C(NCc1ccc(-c2ncon2)cc1)c1cc(-c2ccc(OC(F)(F)F)cc2)cc(NC(=O)C2CC2)n1` [Example I-094] yielded an LOGP_HCOOH in series [1] (setting [8]) of 3.96. In series [1] (setting [7]), the LOGP_NEUTRAL came to 3.84. The “efficacy (kill in %)” value in series [2] and in series [4] was 100% throughout. For the same molecule, the “efficacy (beetle larvae killed)” value in series [3] (application rate 100 g/ha) and in series [3] (application rate 500 g/ha) was 100% each time. In addition, the “efficacy (caterpillars killed)” value in series [5] (application rate 500 g/ha) is 100%.
In series [1] (setting [8]), `N#Cc1ccc(CNC(=O)c2cc(-c3ccc(OC(F)(F)F)cc3)cc(NC(=O)C3CC3)n2)cc1` [Example I-044, N-(4-Cyanobenzyl)-6-[(cyclopropylcarbonyl)amino]-4-[4-(trifluoromethoxy)phenyl]pyridine-2-carboxamide] registered an LOGP_HCOOH of 3.90. This molecule had an LOGP_NEUTRAL in series [1] (setting [7]) of 3.76. The values for the chromatographic logP in series [1] (setting [9]) and in series [1] (setting [10]) were 3.9 and 3.76, respectively. For the same molecule, the pest or weed control at 100 ppm in series [2] was determined as 100%. For the same molecule, the pest or weed control at 100 g/ha in series [3] (application rate 100 g/ha) and in series [5] (application rate 100 g/ha) was 100% throughout. The pest or weed control at 500 g/ha in series [3] (application rate 500 g/ha) and in series [5] (application rate 500 g/ha) was 100% each time. Further, the “efficacy (kill in %)” value in series [4] is on record as 100%.
`Cc1cc(-c2cc(NC(=O)C3CC3)nc(C(=O)NCc3ccc(C#N)cc3)c2)ccc1OC(F)(F)F` [Example I-098]: in series [1] (setting [8]), the LOGP_HCOOH was found to be 4.21. In series [1] (setting [7]), the LOGP_NEUTRAL came to 4.11. Moreover, the “efficacy (kill in %)” value in series [2] and in series [4] was 100% throughout. The “efficacy (beetle larvae killed)” value in series [3] (application rate 100 g/ha) and in series [3] (application rate 500 g/ha) was 100% throughout. Also, the “efficacy (caterpillars killed)” value in series [5] (application rate 100 g/ha) and in series [5] (application rate 500 g/ha) was 100% throughout.
In turn, `CC(C)C(=O)Nc1cc(-c2ccc(OC(F)(F)F)cc2)cc(C(=O)NCc2ccc(C#N)cc2F)n1` [Example I-081] had an LOGP_HCOOH in series [1] (setting [8]) of 4.22. Moreover, the LOGP_NEUTRAL in series [1] (setting [7]) was 4.09. The “efficacy (kill in %)” value in series [2] and in series [4] was 100% throughout. Besides, the “efficacy (beetle larvae killed)” value came out at 83% in series [3] (application rate 100 g/ha) and 100% in series [3] (application rate 500 g/ha). In addition, the “efficacy (caterpillars killed)” value in series [5] (application rate 100 g/ha) and in series [5] (application rate 500 g/ha) was 100% in each case.
For `N#Cc1cc(F)c(CNC(=O)c2cc(-c3ccc(OC(F)(F)F)cc3)cc(NC(=O)C3CC3)n2)c(F)c1` [Example I-082], the LOGP_HCOOH in series [1] (setting [8]) is reported as 4.12. The LOGP_NEUTRAL in series [1] (setting [7]) was 4.01. Besides, the “efficacy (kill in %)” value in series [2] and in series [4] was 100% in each case. Moreover, the “efficacy (beetle larvae killed)” value in series [3] (application rate 100 g/ha) and in series [3] (application rate 500 g/ha) was 100% throughout. The “efficacy (caterpillars killed)” value in series [5] (application rate 100 g/ha) and in series [5] (application rate 500 g/ha) was 100% throughout.
`N#Cc1ccc(CNC(=O)c2cc(-c3ccc(SC(F)(F)F)cc3)cc(NC(=O)C3CC3)n2)cc1` [Example I-052] gave an LOGP_HCOOH in series [1] (setting [8]) of 4.19. In addition, the LOGP_NEUTRAL in series [1] (setting [7]) is listed as 4.01. The “efficacy (kill in %)” value in series [2] and in series [4] was 100% in each case. The “efficacy (beetle larvae killed)” value in series [3] (application rate 100 g/ha) and in series [3] (application rate 500 g/ha) was 100% in each case. The “efficacy (caterpillars killed)” value in series [5] (application rate 100 g/ha) and in series [5] (application rate 500 g/ha) was 100% throughout.

Source of the values: patent publication US20190053492A1, “SUBSTITUTED PYRIDINE COMPOUNDS AS PESTICIDES” (Bayer CropScience Aktiengesellschaft, priority 2016, published 2019).
